{
  "source": "patent US20240402081A1",
  "about": "“MOLECULAR DIFFUSION EVALUATION METHOD AND SYSTEM” (Nippon Telegraph and Telephone Corporation, priority 2021, published 2024)",
  "assay": "SPR measurement of tracer molecule diffusion in a hydrogel layer (channel chip)",
  "format": "physicochemical",
  "settings": "aqueous solutions of glucose and ethanol as tracer molecules; FIG. 5",
  "procedure": "Hereinafter, a molecular diffusion evaluation method according to an embodiment of the present invention will be described with reference to FIG. 1. First, in step S101, a solution in which a target molecule (tracer molecule) is dissolved is introduced into a channel. The channel is formed on, for example, a measurement chip used by being attached to a surface plasmon resonance (SPR) measurement system. The channel includes a measurement area by surface plasmon resonance and a hydrogel layer provided in the middle of the measurement area. […] In a process where the solution in which the target molecule is dissolved passes through the portion where the hydrogel layer is not formed and the portion where the hydrogel layer is formed, the refractive index (SPR angle) at each portion is measured in time series, and the refractive index change (time change in SPR angle) at each portion is acquired. The refractive index change measured in the process of passing through the portion where the hydrogel layer is not formed is the first measurement result. In addition, the refractive index change measured in the process of passing through the portion where the hydrogel layer is formed is the second measurement result. Next, in step S103, the diffusion rate of molecules in the hydrogel is evaluated by comparing the first measurement result with the second measurement result (evaluation step). […]",
  "data": [
    {"smiles": "CCO", "note": "[ethanol]", "values": [
      {"measurement": "diffusion rate in the acrylamide gel, comparison of scaled SPR angle change curves", "result": "different"}
    ]}
  ]
}
